{"source": "paper PMC4442108", "about": "“Preclinical Validation of the Heparin-Reactive Peptide p5+14 as a Molecular Imaging Agent for Visceral Amyloidosis” (Molecules, 2015)", "system": "human AL amyloid extracts", "experiment": "Peptide ex vivo amyloid binding assay (pull-down), AL extracts", "conditions": "for % Bound (mean ± SD): 1 h incubation, PBST, RT, N = 2", "experimental": "Human amyloid tissue extracts were prepared using the water flotation method as described by Pras et al. without modification. Purified amyloid material isolated in the water wash was collected and lyophilized before use.\nTwenty-five microliters of 1 mg/mL AL extract, or synthetic rVλ6Wil variable domain fibrils were centrifuged in a 0.5 mL microfuge tube at 21,000× g for 5 min. The supernatant was discarded and pellet resuspended in 200 µL of PBS with 0.05% Tween-20 (PBST). Ten microliters of a 1:100 dilution of ^125I-p5+14 (~100,000 counts per minute (CPM); ~5 ng peptide) stock was added to the suspension. The mixture was rotated at RT for 1 h. Samples were then centrifuged twice at 15,000× g for 10 min. Supernatants and pellets were separated after each step and the radioactivity in each was measured using a Cobra II gamma counter (Perkin Elmer) with a 1 min acquisition. The percentage of ^125I-p5+14 bound to pellet was determined as follows: % Bound = Pellet CPM/(Pellet CPM + Supernatant CPM) × 100", "note": "Where no end group is shown, it is not given here. [ ]: non-standard residue; d: D form. Tyr(3-I) = N[C@@H](Cc1ccc(O)c(I)c1)C(=O)O", "data": [{"substance": "GGG[Tyr(3-I)]SKAQKAQAKQAKQAQKAQKAQAKQAKQAQKAQKAQAKQAKQ [125I-p5+14]", "values": [{"measurement": "median % bound amongst the test samples", "setting": "across the human AL and ATTR amyloid extracts of Table 3", "value": 92, "unit": "%"}, {"measurement": "% Bound (mean ± SD)", "setting": "κ1 AL08 liver extract", "value": "96.35 ± 0.47", "unit": "%"}, {"measurement": "% Bound (mean ± SD)", "setting": "κ4 AL01 spleen extract", "value": "97.00 ± 0.11", "unit": "%"}, {"measurement": "% Bound (mean ± SD)", "setting": "λ1 AL03 liver extract", "value": "91.16 ± 0.87", "unit": "%"}, {"measurement": "% Bound (mean ± SD)", "setting": "λ1 AL07 liver extract", "value": "51.81 ± 0.25", "unit": "%"}, {"measurement": "% Bound (mean ± SD)", "setting": "λ2 AL02 liver extract", "value": "92.95 ± 0.31", "unit": "%"}, {"measurement": "% Bound (mean ± SD)", "setting": "λ2 AL02 spleen extract", "value": "96.76 ± 3.65", "unit": "%"}, {"measurement": "% Bound (mean ± SD)", "setting": "λ2 AL06 liver extract", "value": "89.66 ± 0.91", "unit": "%"}, {"measurement": "% Bound (mean ± SD)", "setting": "λ2 AL06 spleen extract", "value": "97.11 ± 0.05", "unit": "%"}, {"measurement": "% Bound (mean ± SD)", "setting": "λ2 AL09 liver extract", "value": "84.99 ± 0.14", "unit": "%"}, {"measurement": "% Bound (mean ± SD)", "setting": "λ3 AL04 liver extract", "value": "88.44 ± 0.25", "unit": "%"}, {"measurement": "% Bound (mean ± SD)", "setting": "λ3 AL04 spleen extract", "value": "92.29 ± 0.30", "unit": "%"}, {"measurement": "% Bound (mean ± SD)", "setting": "λ4 AL05 spleen extract", "value": "95.44 ± 0.03", "unit": "%"}]}]}
